Measured values published in article PMC6769516, “Apoptotic Effects of Drug Targeting Conjugates Containing Different GnRH Analogs on Colon Carcinoma Cells” (International Journal of Molecular Sciences, 2019).
Like-named read-outs stand apart in the source and are kept apart here. Non-standard residues stand in square brackets, D forms with d. Residues, ends and D or L forms follow the SMILES beside them. *: point of attachment. Daunorubicin(13-NOCH2CO) = COc1cccc2c1C(=O)c1c(O)c3c(c(O)c1C2=O)C[C@@](O)(C(C)=NOCC(=O)*)C[C@@H]3O[C@H]1C[C@H](N)[C@H](O)[C@H](C)O1; pGlu = O=C1CC[C@@H](C(=O)O)N1; Butyryl = CCCC(=O)*

Test system: HT-29 cell line
Test: Cell viability assay, impedance-based xCELLigence SP System
Set-up: species or system human
Details: for IC50: Delta CI normalized to control, sigmoidal fit, mean ± SD of three parallel measurements, read-out: IC50 of cytotoxicity; for Viability (control = 100 %): conjugate at 10^-4 M, mean of three parallels ± SD
Description: The effects of different GnRH conjugates on HT-29 cell growth were measured by the xCELLigence SP System (ACEA Biosciences, San Diego, CA, USA), which allows cell viability to be detected in real-time via impedance readouts. The experimental setup and the procedure were almost identical to the one described in more detail in our previous works. The continuous monitoring of cell viability provides the opportunity to determine the difference in the time-dependent cellular response for the various GnRH conjugates and to select the optimal time points to conduct more specific end-point assays (e.g., apoptosis assays) for further investigating the mechanism of antitumor activity. […] CI is a dimensionless value and is calculated from the impedance of the well with cells and the background impedance of the well without cells.
Briefly, the main steps of the experiment are the following: (i) the background measurement, in which 80 µL complete cell culture medium was loaded to each well of an E-plate in order to establish a constant CI value; (ii) the cell monitoring step, in which 100 µL of cell suspension (10^5 cell/mL) was added to each well followed by an incubation period of 24 h; and (iii) the compound activity monitoring step, in which test-conjugates (final concentration range: 32 nM–100 µM) were added to the cells at the plateau phase and the CI change was recorded for a further 72 h at 10 kHz. Stock solutions (5 × 10^−3 M) were prepared from the test-conjugates in distilled water and then further diluted to 320 nM–1 mM in the complete cell culture medium. The wells treated with an adequate volume of pure cell culture medium represented the control. Triplicate wells were used for each treatment for statistical analysis.
Delta CI values—a difference of CI value at the time point of cell inoculation and CI value at a given time point—were calculated by RTCA 2.0 software (ACEA Biosciences, San Diego, CA, USA) integrated into the xCELLigence SP System to characterize the time-dependent antiproliferative/cytotoxic effect of the different GnRH conjugates. IC50 values were used to compare the effect of the conjugates.

COc1cccc2c1C(=O)c1c(O)c3c(c(O)c1C2=O)C[C@@](O)(C(C)=NOCC(=O)NCCCC[C@@H](NC(=O)[C@H](Cc1c[nH]cn1)NC(=O)[C@H](CO)NC(=O)[C@H](Cc1c[nH]c2ccccc12)NC(=O)[C@H](Cc1c[nH]cn1)NC(=O)[C@@H]1CCC(=O)N1)C(=O)N[C@@H](Cc1c[nH]c2ccccc12)C(=O)N[C@@H](Cc1ccc(O)cc1)C(=O)N1CCC[C@H]1C(=O)NCC(N)=O)C[C@@H]3O[C@H]1C[C@H](N)[C@H](O)[C@H](C)O1 [II-[^4Ser,^6D-Lys(Dau)], GnRH-II-[^4Ser,^6D-Lys(Dau=Aoa)]] ([pGlu]HWSH[dK](Daunorubicin(13-NOCH2CO))WYPG-NH2)
IC50 (24 h incubation): 58.9 ± 10 µM
IC50 (48 h incubation): 24.2 ± 0.86 µM
IC50 (72 h incubation): 19.7 ± 2.51 µM
Viability (control = 100 %) (48 h): 16.91 ±1.91%
Viability (control = 100 %) (72 h): 20.43 ± 2.66%

CCCC(=O)NCCCC[C@H](NC(=O)[C@H](Cc1c[nH]c2ccccc12)NC(=O)[C@H](Cc1c[nH]cn1)NC(=O)[C@@H]1CCC(=O)N1)C(=O)N[C@@H](Cc1c[nH]cn1)C(=O)N[C@H](CCCCNC(=O)CON=C(C)[C@]1(O)Cc2c(O)c3c(c(O)c2[C@@H](O[C@H]2C[C@H](N)[C@H](O)[C@H](C)O2)C1)C(=O)c1c(OC)cccc1C3=O)C(=O)N[C@@H](Cc1c[nH]c2ccccc12)C(=O)N[C@@H](Cc1ccc(O)cc1)C(=O)N1CCC[C@H]1C(=O)NCC(N)=O [II-[^4Lys(Bu),^6D-Lys(Dau)], GnRH-II-[^4Lys(Bu),^6D-Lys(Dau=Aoa)]] ([pGlu]HWK(Butyryl)H[dK](Daunorubicin(13-NOCH2CO))WYPG-NH2)
IC50 (24 h incubation): 65.8 ± 3.89 µM
IC50 (48 h incubation): 69.7 ± 4.12 µM
IC50 (72 h incubation): 48.1 ± 6.89 µM
Viability (control = 100 %) (24 h): 35.64 ± 3.41%
Viability (control = 100 %) (48 h): 19.40 ± 2.77%
Viability (control = 100 %) (72 h): 24.31 ± 4.20%

CCCC(=O)NCCCC[C@H](NC(=O)[C@H](Cc1c[nH]c2ccccc12)NC(=O)[C@H](Cc1c[nH]cn1)NC(=O)[C@@H]1CCC(=O)N1)C(=O)N[C@@H](Cc1ccc(O)cc1)C(=O)N[C@H](CCCCNC(=O)CON=C(C)[C@]1(O)Cc2c(O)c3c(c(O)c2[C@@H](O[C@H]2C[C@H](N)[C@H](O)[C@H](C)O2)C1)C(=O)c1c(OC)cccc1C3=O)C(=O)N[C@@H](CC(C)C)C(=O)N[C@@H](CCCNC(=N)N)C(=O)N1CCC[C@H]1C(=O)NCC(N)=O [I-[^4Lys(Bu),^6D-Lys(Dau)], GnRH-I-[^4Lys(Bu),^6D-Lys(Dau=Aoa)]] ([pGlu]HWK(Butyryl)Y[dK](Daunorubicin(13-NOCH2CO))LRPG-NH2)
IC50 (24 h incubation): > 100 µM
IC50 (48 h incubation): 18.7 ± 1.19 µM
IC50 (72 h incubation): 16.2 ± 1.75 µM
Viability (control = 100 %) (24 h): 86.69 ± 4.84%
Viability (control = 100 %) (48 h): 15.50 ± 0.55%
Viability (control = 100 %) (72 h): 5.31 ± 1.27%

COc1cccc2c1C(=O)c1c(O)c3c(c(O)c1C2=O)C[C@@](O)(C(C)=NOCC(=O)NCCCC[C@@H](NC(=O)[C@H](Cc1ccc(O)cc1)NC(=O)[C@H](CO)NC(=O)[C@H](Cc1c[nH]c2ccccc12)NC(=O)[C@H](Cc1c[nH]cn1)NC(=O)[C@@H]1CCC(=O)N1)C(=O)N[C@@H](CC(C)C)C(=O)N[C@@H](CCCNC(=N)N)C(=O)N1CCC[C@H]1C(=O)NCC(N)=O)C[C@@H]3O[C@H]1C[C@H](N)[C@H](O)[C@H](C)O1 [I-[^4Ser,^6D-Lys(Dau)], GnRH-I-[^4Ser,^6D-Lys(Dau=Aoa)]]
IC50 (24 h incubation): > 100 µM
IC50 (48 h incubation): 60.2 ± 3.5 µM
IC50 (72 h incubation): 21.9 ± 1.54 µM
Viability (control = 100 %) (48 h): 43.82 ± 1.18%
